Laboratory results as given in ChEMBL document CHEMBL1152046, “Pyrrolooctahydroisoquinolines as potent and selective opioid receptor ligands: SAR analysis and docking studies” (Bioorg Med Chem Lett, 1997).
pKi: −log10 of the molar value.

What was measured:
[1] = biological target: Kappa-type opioid receptor (Mus musculus, UniProt P33534); experiment: Binding affinity against Kappa opioid receptor using [3H]U-69593 radioligand in mouse brain homogenates; format: tissue-based
[2] = biological target: Delta-type opioid receptor (Mus musculus, UniProt P32300); experiment: inhibition of [3H]DADLE binding to delta-opioid receptor of mouse brain homogenates
Mu-type opioid receptor = Mu-type opioid receptor (Mus musculus, UniProt P42866); experiment: Inhibition of [3H]DAMGO from mouse brain homogenate Mu opioid receptor
Chain of Mu-type opioid receptor (P42866 whole entry): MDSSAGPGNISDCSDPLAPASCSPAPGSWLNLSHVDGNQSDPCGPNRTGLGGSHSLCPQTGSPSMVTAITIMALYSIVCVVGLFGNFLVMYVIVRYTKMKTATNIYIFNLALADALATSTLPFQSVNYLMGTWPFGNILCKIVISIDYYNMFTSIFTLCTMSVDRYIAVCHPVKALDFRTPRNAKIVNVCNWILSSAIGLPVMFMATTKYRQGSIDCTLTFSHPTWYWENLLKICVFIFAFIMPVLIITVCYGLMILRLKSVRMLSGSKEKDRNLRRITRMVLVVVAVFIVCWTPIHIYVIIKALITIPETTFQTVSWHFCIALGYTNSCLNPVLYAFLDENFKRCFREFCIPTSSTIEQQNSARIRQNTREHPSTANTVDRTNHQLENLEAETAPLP

Chain of Kappa-type opioid receptor (P33534 whole entry): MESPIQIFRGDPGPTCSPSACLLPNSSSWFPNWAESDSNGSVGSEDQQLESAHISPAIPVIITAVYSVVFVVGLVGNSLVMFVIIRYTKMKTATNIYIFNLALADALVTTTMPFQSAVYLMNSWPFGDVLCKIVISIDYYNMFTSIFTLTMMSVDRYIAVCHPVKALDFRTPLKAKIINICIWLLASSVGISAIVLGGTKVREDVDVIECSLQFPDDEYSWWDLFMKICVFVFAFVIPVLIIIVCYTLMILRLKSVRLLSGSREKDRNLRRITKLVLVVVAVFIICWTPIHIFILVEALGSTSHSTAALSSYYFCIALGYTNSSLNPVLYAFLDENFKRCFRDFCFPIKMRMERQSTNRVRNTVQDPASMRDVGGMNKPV
Chain of Delta-type opioid receptor (P32300 whole entry): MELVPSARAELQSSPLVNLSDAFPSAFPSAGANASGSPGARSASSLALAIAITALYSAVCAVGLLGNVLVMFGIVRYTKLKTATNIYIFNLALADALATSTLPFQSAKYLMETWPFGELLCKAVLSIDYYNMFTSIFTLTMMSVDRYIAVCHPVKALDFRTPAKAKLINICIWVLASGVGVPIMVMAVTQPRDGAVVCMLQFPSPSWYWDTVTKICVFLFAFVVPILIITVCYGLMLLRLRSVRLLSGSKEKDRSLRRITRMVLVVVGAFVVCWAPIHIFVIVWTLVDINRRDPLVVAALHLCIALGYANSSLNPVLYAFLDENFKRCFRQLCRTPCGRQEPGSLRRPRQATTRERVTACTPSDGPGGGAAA

Row | Structure (SMILES) | pKi [1] | pKi [2] | pKi (Mu-type opioid receptor)
1 | CN1CC[C@]2(c3cccc(O)c3)Cc3nc4ccccc4cc3C[C@H]2C1 | 6.51 | 9.64 | 7.22
2 | CCN1CC[C@]2(c3cccc(O)c3)Cc3[nH]c(C(=O)N(C(C)C)C(C)C)c(C)c3C[C@H]2C1 | < 6.00 | 8.59 | 7.24
3 | CCOC(=O)c1[nH]c2c(c1C)C[C@@]1(c3cccc(O)c3)CCN(CC)C[C@@H]1C2 | 6.77 | 8.62 | 6.85
4 | CCN1CC[C@]2(c3cccc(O)c3)Cc3[nH]c(C(=O)N(C)C)c(C)c3C[C@H]2C1 | < 6.00 | 8.17 | 6.24
5 | CCN1CC[C@]2(c3cccc(O)c3)Cc3[nH]c(C(=O)N(CC)CC)c(C)c3C[C@H]2C1 | – | 9.02 | –
6 | CCN1CC[C@]2(c3cccc(O)c3)Cc3c([nH]c(C(=S)N(CC)CC)c3C)C[C@H]2C1 | 6.35 | 8.82 | 7.38
7 | CCN(CC)C(=O)c1[nH]c2c(c1C)C[C@@]1(c3cccc(O)c3)CCN(C)C[C@@H]1C2 | < 6.00 | 8.52 | 7.05
8 | CCN1CC[C@]2(c3cccc(O)c3)Cc3[nH]c(C(N)=O)c(C)c3C[C@H]2C1 | 7.15 | 7.82 | 6.86
